# Measurements: ChEMBL document CHEMBL2331255, “Carbonic anhydrase inhibitors: benzenesulfonamides incorporating cyanoacrylamide moieties are low nanomolar/subnanomolar inhibitors of the tumor-associated isoforms IX and XII” (Bioorg Med Chem, 2013)
# What was measured:
# [1] = biological target: Carbonic anhydrase 9 (Homo sapiens, UniProt Q16790); assay: Inhibition of human carbonic anhydrase 9 preincubated for 15 mins by CO2 hydration stopped-flow assay
# [2] = biological target: Carbonic anhydrase 12 (Homo sapiens, UniProt O43570); assay: Inhibition of human carbonic anhydrase 12 preincubated for 15 mins by CO2 hydration stopped-flow assay
# Chain of Carbonic anhydrase 12 (O43570 whole entry): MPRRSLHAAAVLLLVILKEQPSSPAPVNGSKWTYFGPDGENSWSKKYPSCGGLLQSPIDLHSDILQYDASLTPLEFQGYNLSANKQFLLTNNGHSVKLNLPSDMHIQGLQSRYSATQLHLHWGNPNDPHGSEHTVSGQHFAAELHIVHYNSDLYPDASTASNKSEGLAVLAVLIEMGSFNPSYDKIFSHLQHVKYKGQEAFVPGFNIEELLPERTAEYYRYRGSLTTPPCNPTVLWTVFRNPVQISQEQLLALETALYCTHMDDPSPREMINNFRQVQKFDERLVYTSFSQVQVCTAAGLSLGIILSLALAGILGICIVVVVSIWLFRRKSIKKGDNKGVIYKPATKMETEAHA
# [3] = biological target: Carbonic anhydrase 1 (Homo sapiens, UniProt P00915); assay: Inhibition of human carbonic anhydrase 1 preincubated for 15 mins by CO2 hydration stopped-flow assay
# Chain of Carbonic anhydrase 1 (P00915 whole entry): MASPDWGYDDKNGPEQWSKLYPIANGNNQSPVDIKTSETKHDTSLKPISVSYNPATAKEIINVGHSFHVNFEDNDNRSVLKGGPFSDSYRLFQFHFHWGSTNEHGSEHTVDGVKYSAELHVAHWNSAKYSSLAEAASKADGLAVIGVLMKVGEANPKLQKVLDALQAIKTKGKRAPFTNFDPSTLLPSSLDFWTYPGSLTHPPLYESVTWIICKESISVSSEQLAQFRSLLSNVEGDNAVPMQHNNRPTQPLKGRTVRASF
# [4] = biological target: Carbonic anhydrase 2 (Homo sapiens, UniProt P00918); assay: Inhibition of human carbonic anhydrase 2 preincubated for 15 mins by CO2 hydration stopped-flow assay
Ki [1],Compound,other results
4.3 nM,N#C/C(=C\c1ccco1)C(=O)Nc1ccc(S(N)(=O)=O)cc1,Ki [2]: 6.3 nM; Ki [3]: 6.1 nM; Ki [4]: 5.5 nM
32.6 nM,COc1ccccc1/C=C(\C#N)C(=O)Nc1ccc(S(N)(=O)=O)cc1,Ki [2]: 0.6 nM; Ki [3]: 71 nM; Ki [4]: 6.9 nM
20.5 nM,COc1cc(/C=C(\C#N)C(=O)Nc2ccc(S(N)(=O)=O)cc2)cc(OC)c1OC,–
0.96 nM,COc1cc(OC)c(OC)cc1/C=C(\C#N)C(=O)Nc1ccc(S(N)(=O)=O)cc1,–
21.2 nM,COc1ccc(/C=C(\C#N)C(=O)Nc2ccc(S(N)(=O)=O)cc2)cc1OC,–
5.4 nM,COc1cc(/C=C(\C#N)C(=O)Nc2ccc(S(N)(=O)=O)cc2)ccc1O,–
0.65 nM,N#C/C(=C\c1ccc(O)c(O)c1)C(=O)Nc1ccc(S(N)(=O)=O)cc1,–
0.67 nM,N#C/C(=C\c1ccc(O)cc1)C(=O)Nc1ccc(S(N)(=O)=O)cc1,–
3.4 nM,CN(C)c1ccc(/C=C(\C#N)C(=O)Nc2ccc(S(N)(=O)=O)cc2)cc1,–
3.7 nM,N#C/C(=C\c1cccs1)C(=O)Nc1ccc(S(N)(=O)=O)cc1,–
12.8 nM,N=c1oc2ccccc2cc1C(=O)Nc1ccc(S(N)(=O)=O)cc1,–
9.5 nM,N#C/C(=N\Nc1ccccc1)C(=O)Nc1ccc(S(N)(=O)=O)cc1,–
5.8 nM,N#C/C(C(=O)Nc1ccc(S(N)(=O)=O)cc1)=C(\S)Nc1ccccc1,–
0.33 nM,CC(=O)C1=NN(c2ccccc2)/C(=C(\C#N)C(=O)Nc2ccc(S(N)(=O)=O)cc2)S1,–
5.2 nM,N#CCC(=O)Nc1ccc(S(N)(=O)=O)cc1,–
35.6 nM,N#C/C(=C\c1ccc(Cl)cc1Cl)C(=O)Nc1ccc(S(N)(=O)=O)cc1,–
0.93 nM,N#C/C(=C\c1ccc([N+](=O)[O-])cc1)C(=O)Nc1ccc(S(N)(=O)=O)cc1,–
0.86 nM,COc1ccc(/C=C(\C#N)C(=O)Nc2ccc(S(N)(=O)=O)cc2)cc1,–

Compound,Ki [1],other results
N#C/C(=C\C=C\c1ccccc1)C(=O)Nc1ccc(S(N)(=O)=O)cc1,4.9 nM,–
N#C/C(=C\c1ccccc1Cl)C(=O)Nc1ccc(S(N)(=O)=O)cc1,8.9 nM,–
